Assay results reported in patent US20210177828A1, “TAM FAMILY KINASE /AND CSF1R KINASE INHIBITOR AND USE THEREOF” (Nanjing Transthera Biosciences Co., Ltd., priority 2018, published 2021).
Where two headings read alike, the source gives them in different places.

How the values were obtained:
[1] = PK assay in rat (IV and PO); assay type: in vivo; conditions: plasma, SD rats; for bioavailability: read-out: F % (absolute bioavailability); for clearance: read-out: Cl_obs iv (clearance rate) (converted); for Vd: read-out: Vz_obs iv (apparent volume of distribution); for Tmax: read-out: Tmax po (time of maximum observed plasma concentration)
Experimental: The experimental compounds were each dissolved in a mixture of 5% DMSO+20% (30% solutol)+75% saline to prepare compound solutions. The compound solutions were intragastrically administered to SD rats at a dosage of 5.0 mg/kg. The blood was sampled at time points of 15 min, 30 min, 1 hr, 2 hrs, 4 hrs, 6 hrs, 8 hrs and 24 hrs after administration.
The experimental compounds were each dissolved in a mixture of 5% DMSO+20% (30% solutol)+75% saline to prepare compound solutions. The compound solutions were intravenously administered to SD rats at a dosage of 1 mg/kg. The blood was sampled at time points of 5 min, 15 min, 30 min, 1 hr, 2 hrs, 4 hrs, 6 hrs, 8 hrs and 24 hrs after administration.
The animals were fixed, and the tails were heated under a water bath 10 min before each sampling time. About 100 μL of blood was collected via the tail vein, and the collected blood was placed in an anticoagulant tube containing EDTA-K2. The blood samples were centrifuged at 8,000 rpm for 6 min at 4° C. to obtain plasma samples, and the plasma samples were prepared within 30 min after the blood collection. The plasma samples were stored in a refrigerator at −80° C. before test.
The sample to be tested was taken out from the −80° C. refrigerator, naturally thawed at room temperature, and vortexed for 5 min. 20 μL of plasma sample was pipetted to a 1.5 mL centrifuge tube, and 200 μL of internal standard working solution (a solution of tolbutamide in methanol, 100 ng/mL) was added. The resulting mixture was thoroughly mixed, vortexed for 5 min, and centrifuged at 12,000 rpm for 5 min. 50 μL of supernatant was precisely pipetted to a 96-well plate with 150 μL of water per well, and the resulting mixture was vortexed for 5 min and then used for LC-MS/MS analysis.

H1299 cell pAxl = molecular target: T1, H1299 cell pAxl (Homo sapiens, UniProt P30530); assay: Inhibitory activity on cell pAxl, H1299 cells, hGAS6 stimulation, Western Blot; assay type: cell-based; conditions: hGAS6 200 ng/mL
T1 construct: endogenous in cells; host or cells: H1299
T1 sequence (P30530 26-894): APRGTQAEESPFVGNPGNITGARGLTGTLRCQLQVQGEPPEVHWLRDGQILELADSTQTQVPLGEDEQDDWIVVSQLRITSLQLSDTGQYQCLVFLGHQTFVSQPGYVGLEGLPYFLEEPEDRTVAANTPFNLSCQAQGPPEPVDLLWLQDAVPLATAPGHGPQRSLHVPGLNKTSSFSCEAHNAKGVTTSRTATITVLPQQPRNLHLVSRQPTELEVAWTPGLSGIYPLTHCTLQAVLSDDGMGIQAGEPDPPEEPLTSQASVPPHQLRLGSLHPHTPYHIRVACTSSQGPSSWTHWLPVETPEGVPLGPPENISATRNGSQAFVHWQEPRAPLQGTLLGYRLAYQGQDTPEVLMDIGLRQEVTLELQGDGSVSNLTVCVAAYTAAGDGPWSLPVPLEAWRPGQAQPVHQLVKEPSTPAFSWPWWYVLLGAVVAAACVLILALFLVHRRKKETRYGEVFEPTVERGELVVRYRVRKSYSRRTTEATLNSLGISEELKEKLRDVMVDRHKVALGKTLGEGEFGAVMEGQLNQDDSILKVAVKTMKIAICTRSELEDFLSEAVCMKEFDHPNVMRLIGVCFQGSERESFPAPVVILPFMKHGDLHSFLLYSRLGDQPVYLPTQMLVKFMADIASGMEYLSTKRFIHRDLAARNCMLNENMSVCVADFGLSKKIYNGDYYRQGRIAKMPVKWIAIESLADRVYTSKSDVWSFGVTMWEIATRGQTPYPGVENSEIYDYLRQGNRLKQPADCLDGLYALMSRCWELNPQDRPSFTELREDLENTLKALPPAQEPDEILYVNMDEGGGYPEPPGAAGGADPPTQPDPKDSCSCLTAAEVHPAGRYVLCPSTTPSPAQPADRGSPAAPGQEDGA
Experimental: H1299 is a non-small cell lung cancer cell.
H1299 cells were inoculated to a 6-well plate (containing 10% FBS 1640 medium, 5×10^5 cells per well) and adherently cultivated at 37° C., and 5% CO2 for 18 hrs. The cells were starved overnight, and then compound solutions with different concentrations were added. The compounds had final concentrations of 1.1, 3.3, 10 and 30 nM. […] There was a medium containing 1‰DMSO in the negative control well. The cells were incubated at 37° C., and 5% CO2 for 60 min, and then hGAS6 (R&D, final concentration: 200 ng/mL) was added to each well. The cells were further incubated for 60 min, and then the total protein of the cells was extracted for Western Blot experiment. IC50 values were calculated with GraphPad 5.0 software, and the inhibitory activities of the compounds on cell pAxl were detected.

[2] = IV 1 mg/kg, read-out: AUClast iv (area under plasma concentration-time curve, 0-24 h)
[3] = IV 1 mg/kg, read-out: tz1/2 iv (terminal half-life) (converted)
[4] = PO 5 mg/kg, read-out: AUClast po (area under plasma concentration-time curve, 0-24 h)
[5] = PO 5 mg/kg, read-out: tz1/2 po (terminal half-life) (converted)

SMILES | bioavailability ([1]; IV 1 mg/kg, PO 5 mg/kg) | AUC(0-t) [1, 2] | clearance ([1]; IV 1 mg/kg) | Vd ([1]; IV 1 mg/kg) | half-life [1, 3] | AUC(0-t) [1, 4] | Tmax ([1]; PO 5 mg/kg) | half-life [1, 5] | IC50 (H1299 cell pAxl)
COc1cc2nccc(Oc3ccc(NC(=O)c4cc(-c5ccc(C)cc5)cn(CC5CCOCC5)c4=O)nc3)c2cc1OC [Compound 13, N-(5-((6,7-dimethoxyquinolin-4-yl)oxy)pyridin 2yl)-2-oxo-1-((tetrahydro-2H-pyran-4-yl)methyl)-5-(p-tolyl)-1,2-dihydropyridin-3-carboxamide] | 46.4% | 4220 ng·h/mL | 3.33 mL/min/kg | 1.65 L/kg | 9.08 h | 9790 ng·h/mL | 4 h | 8.12 h | –
COc1cc2nccc(Oc3ccc(NC(=O)c4cn(C5CCOCC5)cc(-c5ccc(F)cc5)c4=O)nc3)c2cc1OC [Compound 27, N-(5-((6,7-dimethoxyquinolin-4-yl)oxy)pyridin-2-yl)-5-(4-fluorophenyl)-4-oxo-1-(tetrahydro-2H-pyran-4-yl)-1,4-dihydropyridin-3-carboxamide] | – | – | – | – | – | – | – | – | < 1.1 nM
Cc1ccc(-c2cn(C3CCOCC3)nc(C(=O)Nc3ccc(Oc4ccnc5cc6c(cc45)OCCO6)cn3)c2=O)cc1 [Compound 30, N-(5-((2,3-dihydro-[1,4]dioxino[2,3-g]quinolin-9-yl)oxy)pyridin-2-yl)-4-oxo-1-(tetrahydro-2H-pyran-4-yl)-5-(p-tolyl)-1,4-dihydropyridazin-3-carboxamide] | – | – | – | – | – | – | – | – | > 10 nM
COc1cc2nccc(Oc3cnc(NC(=O)c4cn(C5CCOCC5)cc(-c5ccc(F)cc5)c4=O)nc3)c2cc1OC [Compound 31, N-(5-((6,7-dimethoxyquinolin-4-yl)oxy)pyrimidin-2-yl)-5-(4-fluorophenyl)-4-oxo-1-(tetrahydro-2H-pyran-4-yl)-1,4-dihydropyridin-3-carboxamide] | – | – | – | – | – | – | – | – | < 3.3 nM
COc1cc2nccc(Oc3ccc(NC(=O)c4cc(CC5CCOCC5)cn(-c5ccc(F)cc5)c4=O)nc3)c2cc1OC [Compound 32, N-(5-((6,7-dimethoxyquinolin-4-yl)oxy)pyridin-2-yl)-1-(4-fluorophenyl)-2-oxo-5-((tetrahydro-2H-pyran-4-yl)methy 1)-1,2-dihydropyridin-3-carboxamide] | – | – | – | – | – | – | – | – | < 1.1 nM

Continued, values first:

bioavailability ([1]; IV 1 mg/kg, PO 5 mg/kg) | AUC(0-t) [1, 2] | clearance ([1]; IV 1 mg/kg) | Vd ([1]; IV 1 mg/kg) | half-life [1, 3] | AUC(0-t) [1, 4] | Tmax ([1]; PO 5 mg/kg) | half-life [1, 5] | IC50 (H1299 cell pAxl) | SMILES
31.3% | 4070 ng·h/mL | 4 mL/min/kg | 1.19 L/kg | 3.47 h | 6620 ng·h/mL | 4 h | 3.14 h | – | COc1cc2nccc(Oc3ccc(NC(=O)c4nn(CC5CCOCC5)cc(-c5ccc(C)cc5)c4=O)nc3)c2cc1OC [Compound 2, N-(5-((6,7-dimethoxyquinolin-4-yl)oxy)pyridin-2-yl)-4-oxo-1-((tetrahydro-2H-pyran-4-yl)methyl)-5-(p-tolyl)-1,4-dihydropyridazin-3-carboxamide]
70.7% | 4860 ng·h/mL | 3.5 mL/min/kg | 1.18 L/kg | 3.98 h | 17200 ng·h/mL | 6 h | 3.5 h | – | COc1cc2nccc(Oc3ccc(NC(=O)c4nn(C5CCOCC5)cc(-c5ccc(C)cc5)c4=O)nc3)c2cc1OC [Compound 17, N-(5-((6,7-dimethoxyquinolin-4-yl)oxy)pyridin-2-yl)-4-oxo-1-(tetrahydro-2H-pyran-4-yl)-5-(p-tolyl)-1,4-dihydropyridazin-3-carboxamide]
34.6% | 1500 ng·h/mL | 11 mL/min/kg | 0.92 L/kg | 0.96 h | 2600 ng·h/mL | 0.5 h | 1.17 h | – | COc1cc2nccc(Oc3cnc(NC(=O)c4nn(C5CCOCC5)cc(-c5ccc(C)cc5)c4=O)nc3)c2cc1OC [Compound 18, N-(5-((6,7-dimethoxyquinolin-4-yl)oxy)pyrimidin-2-yl)-4-oxo-1-(tetrahydro-2H-pyran-4-yl)-5-(p-tolyl)-1,4-dihydropyridazin-3-carboxamide]
40.5% | 2440 ng·h/mL | 6.17 mL/min/kg | 1.3 L/kg | 2.44 h | 5450 ng·h/mL | 1 h | 2.56 h | – | COc1cc2nccc(Oc3ccc(NC(=O)c4cn(C5CCOCC5)cc(-c5ccc(C)cc5)c4=O)nc3)c2cc1OC [Compound 19, N-(5-((6,7-dimethoxyquinolin-4-yl)oxy)pyridin-2-yl)-4-oxo-1-(tetrahydro-2H-pyran-4-yl)-5-(p-tolyl)-1,4-dihydropyridin-3-carboxamide]
– | – | – | – | – | – | – | – | 1.1 nM | COc1cc2nccc(Oc3ccc(NC(=O)c4nn(C5CCOCC5)cc(-c5ccc(C)cc5)c4=O)cc3F)c2cc1OC [Compound 28]
– | – | – | – | – | – | – | – | 30 nM | Cc1ccc(-c2cn(C3CCOCC3)nc(C(=O)Nc3ccc(Oc4ccnc5cc6c(cc45)OCO6)cn3)c2=O)cc1 [Compound 29, N-(5-([1,3]dioxolo[4,5-g]quinolin-8-yloxy)pyridin-2-yl)-4-oxo-1-(tetrahydro-2H-pyran-4-yl)-5-(p-tolyl)-1,4-dihydropyridazin-3-carboxamide]
– | – | – | – | – | – | – | – | 3.3 nM | COc1cc2nccc(Oc3cnc(NC(=O)c4nn(C5CCOCC5)cc(-c5ccc(F)cc5)c4=O)nc3)c2cc1OC [Compound 33, N-(5-((6,7-dimethoxyquinolin-4-yl)oxy)pyrimidin-2-yl)-5-(4-fluorophenyl)-4-oxo-1-(tetrahydro-2H-pyran-4-yl)-1,4-dihydropyridazin-3-carboxamide]
65.7% | 8440 ng·h/mL | 1.83 mL/min/kg | 0.84 L/kg | 5.18 h | 28000 ng·h/mL | 6 h | 4.56 h | < 1.1 nM | COc1cc2nccc(Oc3ccc(NC(=O)c4nn(C5CCOCC5)cc(-c5ccc(F)cc5)c4=O)nc3)c2cc1OC [Compound 34, N-(5-((6,7-dimethoxyquinolin-4-yl)oxy)pyridin-2-yl)-5-(4-fluorophenyl)-4-oxo-1-(tetrahydro-2H-pyran-4-yl)-1,4-dihydropyridazin-3-carboxamide]
